Laboratory results taken from patent US11413280B2 (The Board of Trustees of the Leland Stanford Junior …, priority 2017, dated 2022).
Entries after “also recorded” stand apart in the source; their conditions may differ.

Columns and labels:
miR17-5 = assay: Relative miR17-5 expression in PAECs (qPCR); type: cell-based, human; details: 15 μM Enzastaurin 24 hours
miR27a = assay: Relative miR27a expression in PAECs (qPCR); type: cell-based, human; details: 15 μM Enzastaurin 24 hours
PAEC [1] = assay: Matrigel tube formation assay; type: cell-based, human; details: FHIT- and BMPR2-deficient PAECs, 15 μM Enzastaurin for 24 hours
Procedure: (§1) Assays were conducted according to the manufacturer's instructions and as previously described(E1,E9).
(§2) Quantified area=% of cells that show nuclear γH2AX staining quantified with automated software (white nuclei=positive stain, grey nuclei=background stain). […] FIGS. 9G-9H, MTT proliferation assay in Enzastaurin-treated (0.5-50 M) in PASMC and PAEC, respectively. (n=3). FIGS. 9I-9J, MTT proliferation assay in Enzastaurin-treated (5 M) siFHIT and siBMPR2 transfected PASMC compared to Ntsi control, respectively. (n=3).
Loss of FHIT and BMPR2 impaired PAECs tube formation 6 hours after cells were seeded in a Matrigel tube formation assay(12) compared to cells treated with control Ntsi (FIG. 9A, FIG. 9B).

Caspase 3/7 in PAECs = assay: Caspase-Glo 3/7 apoptosis assay; type: cell-based, human
Procedure: as §1, §2
(§3) As a cumulative viability measurement, we quantified caspase3/7 activity, using the luminescent Caspase-Glo®3/7 assay(36) and DNA damage, using histone H2AX phosphorylation by immunofluorescence and quantification as nuclear area staining (%) by confocal microscopy(34, 35, 37). […] PAEC proliferation was assessed via an MTT proliferation assay and hemocytometer cell counts(36).

PAEC [2] = assay: γH2AX staining (DNA damage); type: cell-based, human; details: siBMPR2 and siFHIT PAEC, 10 μM Enzastaurin for 24 hours
Procedure: as §1
(§4) Quantified area=% of cells that show nuclear γH2AX staining quantified with automated software (white nuclei=positive stain, grey nuclei=background stain). […] (n=3). […] (n=3).
as §3

PAEC [3] = assay: MTT proliferation assay in PAEC; type: cell-based, human; details: Enzastaurin 0.5-50 M as printed
Procedure: as §1, §4, §3

[4] = tested on: SUGEN5416/Hypoxia/Normoxia rats; assay: SUGEN5416/Hypoxia/Normoxia rat model of experimental PH; type: in vivo
Procedure: Experimental PAH was induced in male Sasco Sprague Dawley rats by subcutaneous injection of 20 mg/kg body weight SU5416. […] Echocardiography was performed to assess development of RV hypertrophy and Ejection Fraction. Right Ventricular (RV) Systolic Pressure was measured through right jugular vein catheterization and RV hypertrophy was assessed by the weight ratio of the RV to left ventricle+septum. Vessel loss and muscularization of lung vessels were visualized by MOVAT pentachrome stain. […] FIG. 4F, Representative MOVAT lung histology. Fhit homozygous (−/−) mice were obtained from Kay F. Huebner (Ohio State University). Bmpr2+/− mice were a gift from Marlene Rabinovitch (Stanford University). Adult wildtype C57BL/6 mice, Bmpr2+/− or Fhit−/− mice at 8-10 weeks of age were housed in chronic hypoxia (10% O2) for 3 weeks, followed by a recovery period of 4 weeks in normoxia (21% O2). […] Development of experimental PH was induced in adult Sprague Dawley rats (8 weeks old, 180-220 g) through a subcutaneous dose of the VEGFR-2 inhibitor SUGEN5416 (20 mg/kg body weight), followed by exposure to chronic hypoxia (10% O2) for 3 weeks and normoxia for 5 weeks (21% O2), as previously described(12). […] Right Ventricular (RV) Systolic Pressure was measured through right jugular vein catheterization, and RV hypertrophy (RVH) was assessed by the weight ratio of the RV to left ventricle and septum (LV+S). Murine and rat lung tissue was fixed in paraformaldehyde (PFA) for 48 hours and preserved in EtOH. Paraffin embedded lung slides were stained with a Movat pentachrome stain (Histo-Tec, Hayward, Calif.), where vessel loss and muscularization of pulmonary vessels was visualized by light microscopy. Fluorescent immunocytochemistry on lung sections was performed on deparaffinized (Histoclear II, National Diagnostics) tissue sections with primary antibodies for von-Willebrand factor (vWF) and alpha smooth muscle actin (αSMA) following antigen-retrieval. Human PAH lung tissue was stained for anti-BMPR2 (Ab130206, Abcam) and anti-FHIT (kind gift of Kay F. Huebner, Ohio State University). PFA-fixed paraffin-embedded heart tissue was stained with trichrome staining (Histo-Tec, Hayward, Calif.) to visualize fibrotic transformation. Sprague Dawley rats, were subcutaneously injected with 20 mg/kg SUGEN5416 once and housed in chronic hypoxia (10%, 3 weeks), followed by 5 weeks in normoxia as previously described(41). […] Hemodynamic assessment of the animals (echocardiography, right heart catheter) was performed before sacrifice and tissue collection. […] Experimental PH was induced in male Sprague Dawley rats by subcutaneous injection of 20 mg/kg body weight SU5416. […] FIG. 11F, Representative MOVAT lung histology, highlighting large pulmonary vessels.

PKC = PKC and p-PKC protein expression in lung tissue of SuHx rats (immunoblot); type: in vivo, rat; details: whole lung tissue, 5 mg/kg daily oral gavage
Procedure: Experimental PAH was induced in male Sasco Sprague Dawley rats by subcutaneous injection of 20 mg/kg body weight SU5416.

[5] = 5 mg/kg daily oral gavage for 3 weeks, vs vehicle
[6] = 5 mg/kg/day oral gavage for 3 weeks, qPCR

Question: How did the “siFHIT-mediated increase in miR17-5 expression” value (miR17-5) turn out when Cn1cc(C2=C(c3cn(C4CCN(Cc5ccccn5)CC4)c4ccccc34)C(=O)NC2=O)c2ccccc21 [Enzastaurin, 3-(1-methyl-1H-indol-3-yl)-4-[1-[1-(pyridin-2-ylmethyl)piperidin-4-yl]-1H-indol-3-yl]-1H-pyrrole-2,5-dione] was run?
Answer: inhibited

Question: And the “siFHIT-mediated increase in miR27a expression” value (miR27a)?
Answer: inhibited

Question: And the “Defects in tube formation” value (PAEC [1])?
Answer: fully reversed the defects in tube formation

Question: What about the “Caspase 3/7-mediated apoptosis in synchronised PAECs” value (Caspase 3/7 in PAECs; 24 hours, 5 μM or 15 μM Enzastaurin, 5 μM Ly333531 hydrochloride) of the same molecule?
Answer: decreases

Question: And the “Caspase 3/7 luminescence (apoptosis) in siBMPR2 and siFHIT PAEC” value (Caspase 3/7 in PAECs; t=48 h post-transfection, 15 μM Enzastaurin)?
Answer: decreased

Question: And the “DNA damage (nuclear γH2AX staining) induced by FHIT or BMPR2-loss” value (PAEC [2])?
Answer: significantly attenuated

Question: And the “PAEC proliferation (MTT)” value (PAEC [3])?
Answer: no increase in PAEC proliferation was detected

Question: And the Cardiac output ([4]; 5 mg/kg daily oral gavage)?
Answer: improves

Question: And the “Cardiac / RV fibrosis” value [4, 5]?
Answer: reverses; also recorded: potently reduced

Question: What about the “Full or partial remodeling / muscularization of small and large vessels” value [4, 5] of the same molecule?
Answer: substantially and significantly reversed; also recorded: potently reduced

Question: What about the “Loss of alveolar wall (AW) and alveolar duct (AD) pulmonary vessels” value [4, 5] of the same molecule?
Answer: substantially and significantly reversed

Question: What about the “Right ventricle hypertrophy (RVH)” value [4, 5] of the same molecule?
Answer: lower; also recorded: potently reduced

Question: And the Vascular occlusion [4, 5]?
Answer: reverses; also recorded: nearly entirely reversed; also recorded: significantly less evidence

Question: And the “Right ventricle systolic pressure (RVSP)” value ([4]; 5 mg/kg daily oral gavage for 3 weeks, vs vehicle treated controls with experimental PAH)?
Answer: lower

Question: What about the “Emphysematous changes (linear intercept analysis of MOVAT lung histology)” value ([4]; 5 mg/kg daily oral gavage, vs untreated controls) of the same molecule?
Answer: significantly less evidence

Question: And the “Reduction of RVSP” value ([4]; 5 mg/kg/day oral gavage for 3 weeks)?
Answer: over 30 mmHg

Question: And the “BMPR2 expression in whole lung” value [4, 6]?
Answer: increased

Question: And the “FHIT expression in whole lung” value [4, 6]?
Answer: increased

Question: What about the “LVEF (%) by Echocardiography” value ([4]; before and after 3 weeks of 5 mg/kg daily oral gavage) of the same molecule?
Answer: improvement

Question: And the “SUGEN5416/Hypoxia/Normoxia-induced lung and RV damage” value ([4]; low-dose Enzastaurin (5 mg/kg/day))?
Answer: potently reversed

Question: What about the “PKC activation as measured by its phosphorylation” value (PKC) of the same molecule?
Answer: did not observe a significant decrease
